Our source for the Ki and IC50 values is patent publication US8129366B2, “VLA-4 inhibitory drug” (Daiichi Sankyo Company, Limited, priority 2005, dated 2012).

SMILES strings stand for the structures.

What is called Ki is the equilibrium dissociation constant of an inhibitor or competing ligand from its target. A word on the IC50: it is the concentration that inhibits the measured activity by half.

The experiment concerns the target T1, hα4 and β1 integrins (Homo sapiens, UniProt P05556+P13612).
T1 construct: expressed in transfected cells; host or cells: CHO cells
Kind of experiment: In vitro inhibition of binding between CHO cells expressing hα4 and β1 integrins and Eu3+-hVCAM-1 D1D7-IgG. To be noted: for Ki: CHO cells expressing hα4 and β1 integrins, Eu3+-hVCAM-1 D1D7-IgG ligand, without HSA; for IC50: in the presence of 3% human serum albumin (HSA final concentration 3%). The method, boiled down:
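Transfected CHO cells, cultured 2 days, were incubated with compound and Eu³⁺-hVCAM-1 D1D7-IgG (diluted to 2 nM) for 1 h at room temperature. Buffer was 25 mM HEPES pH 7.5 with 1 mM Ca²⁺, 1 mM Mg²⁺, 4 mM Mn²⁺ and 0.1% BSA, ±3% HSA final. Cells were washed at 4 °C and read by DELFIA time-resolved fluorescence; Ki was derived from IC50 using the Scatchard Kd.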

T1 sequence (P13612 34-1032): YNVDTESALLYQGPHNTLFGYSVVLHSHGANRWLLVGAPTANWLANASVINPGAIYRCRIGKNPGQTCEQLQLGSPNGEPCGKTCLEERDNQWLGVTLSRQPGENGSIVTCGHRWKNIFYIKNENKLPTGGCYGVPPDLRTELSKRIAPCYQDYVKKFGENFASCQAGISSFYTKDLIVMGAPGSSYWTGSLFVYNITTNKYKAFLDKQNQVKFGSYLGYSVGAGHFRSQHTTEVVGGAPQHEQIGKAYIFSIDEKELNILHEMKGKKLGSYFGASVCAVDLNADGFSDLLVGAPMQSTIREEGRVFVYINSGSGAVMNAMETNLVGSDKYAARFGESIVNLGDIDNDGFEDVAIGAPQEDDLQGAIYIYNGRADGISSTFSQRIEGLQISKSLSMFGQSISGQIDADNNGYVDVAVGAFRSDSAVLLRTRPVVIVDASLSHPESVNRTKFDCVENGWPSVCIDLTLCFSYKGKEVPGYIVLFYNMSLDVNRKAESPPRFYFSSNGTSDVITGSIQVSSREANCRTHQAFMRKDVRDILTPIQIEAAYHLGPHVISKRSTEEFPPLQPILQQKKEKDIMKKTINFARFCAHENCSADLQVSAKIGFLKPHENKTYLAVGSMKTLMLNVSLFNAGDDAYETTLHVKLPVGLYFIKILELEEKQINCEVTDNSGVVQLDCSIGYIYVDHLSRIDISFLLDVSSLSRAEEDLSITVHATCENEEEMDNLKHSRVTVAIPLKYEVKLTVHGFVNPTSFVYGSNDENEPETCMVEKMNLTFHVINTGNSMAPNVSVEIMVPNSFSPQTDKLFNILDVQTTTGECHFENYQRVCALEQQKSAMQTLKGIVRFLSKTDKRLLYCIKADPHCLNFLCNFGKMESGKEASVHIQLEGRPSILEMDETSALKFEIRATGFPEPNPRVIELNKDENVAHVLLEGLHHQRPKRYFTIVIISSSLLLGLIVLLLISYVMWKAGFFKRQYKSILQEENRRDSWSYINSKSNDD
T1 sequence (P05556 21-798): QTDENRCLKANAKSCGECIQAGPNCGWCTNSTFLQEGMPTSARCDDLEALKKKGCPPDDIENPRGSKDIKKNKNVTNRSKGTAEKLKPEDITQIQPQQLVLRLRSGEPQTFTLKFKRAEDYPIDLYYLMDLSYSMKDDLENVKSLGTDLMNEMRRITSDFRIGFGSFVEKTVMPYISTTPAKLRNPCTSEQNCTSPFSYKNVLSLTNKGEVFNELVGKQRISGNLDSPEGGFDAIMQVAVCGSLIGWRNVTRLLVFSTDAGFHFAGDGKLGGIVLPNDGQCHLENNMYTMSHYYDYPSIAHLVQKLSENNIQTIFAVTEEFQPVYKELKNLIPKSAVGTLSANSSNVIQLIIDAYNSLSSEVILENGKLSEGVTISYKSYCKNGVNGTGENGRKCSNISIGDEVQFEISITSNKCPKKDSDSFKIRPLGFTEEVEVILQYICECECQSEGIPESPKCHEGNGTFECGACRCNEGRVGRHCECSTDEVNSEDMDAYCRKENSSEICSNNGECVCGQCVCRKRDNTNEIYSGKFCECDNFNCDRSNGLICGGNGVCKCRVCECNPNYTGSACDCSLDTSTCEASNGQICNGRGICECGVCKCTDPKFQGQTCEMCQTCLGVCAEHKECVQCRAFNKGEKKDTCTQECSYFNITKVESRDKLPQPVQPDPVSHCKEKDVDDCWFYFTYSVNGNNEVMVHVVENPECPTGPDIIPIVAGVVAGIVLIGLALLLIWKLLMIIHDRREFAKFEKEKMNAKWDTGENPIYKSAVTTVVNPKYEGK

Regarding `CS(=O)(=O)N1CCCN([C@H]2C[C@@H](CO[C@H]3CC[C@H](C(=O)O)CC3)N(C(=O)Cc3cc(Cl)c(NC(=O)c4coc5ccccc45)cc3F)C2)CC1` [Example 170, Trans-4-[1-[[4-[(benzo[b]furan-3-ylcarbonyl)amino]-5-chloro-2-fluorophenyl]acetyl]-(4S)-(4-methanesulfonyl[1,4]-diazepan-1-yl)-(2S)-pyrrolidinylmethoxy]cyclohexanecarboxylic acid], the Ki was 2.6 nM and the IC50 turned out to be 11 nM.

As for `Cn1cc(C(=O)Nc2cc(F)c(CC(=O)N3C[C@@H](N4CCN(c5ccncc5)CC4)C[C@H]3CO[C@H]3CC[C@H](C(=O)O)CC3)cc2Cl)c2ccccc21` [Example 145, Trans-4-[1-[[5-chloro-2-fluoro-4-[(1-methyl-1H-indol-3-ylcarbonyl)amino]phenyl]acetyl]-(4S)-[4-(4-pyridyl)piperazin-1-yl]-(2S)-pyrrolidinylmethoxy]cyclohexanecarboxylic acid], the inhibitory constant (Ki) was 3.9 nM and the IC50 turned out to be 11 nM.

Take `Cn1cc(C(=O)Nc2cc(F)c(CC(=O)N3C[C@@H](N4CCSCC4)C[C@H]3CO[C@H]3CC[C@H](C(=O)O)CC3)cc2Cl)c2ccccc21` [Example 158, Trans-4-[1-[[5-chloro-2-fluoro-4-[(1-methyl-1H-indol-3-ylcarbonyl)amino]phenyl]acetyl]-(4S)-(thiomorpholin-4-yl)-(2S)-pyrrolidinylmethoxy]cyclohexanecarboxylic acid]: the Ki was 4 nM and the IC50 came to 16 nM.

For the molecule `Cn1cc(C(=O)Nc2cc(F)c(CC(=O)N3C[C@@H](N4CCCO4)C[C@H]3CO[C@H]3CC[C@H](C(=O)O)CC3)cc2Cl)c2ccccc21` [Example 69, Trans-4-[1-[[5-chloro-2-fluoro-4-[(1-methyl-1H-indol-3-ylcarbonyl)amino]phenyl]acetyl]-(4S)-(isoxazolidin-2-yl)-(2S)-pyrrolidinylmethoxy]cyclohexanecarboxylic acid], the inhibitory constant (Ki) is 6.1 nM and the IC50 was found to be 66 nM.

As for `CN1CCN([C@H]2C[C@@H](CO[C@H]3CC[C@H](C(=O)O)CC3)N(C(=O)Cc3cc(Cl)c(NC(=O)c4cn(C)c5ccccc45)cc3Cl)C2)CC1` [Example 112, Trans-4-[1-[[2,5-dichloro-4-[(1-methyl-1H-indol-3-ylcarbonyl)amino]phenyl]acetyl]-(4S)-(4-methylpiperazin-1-yl)-(2S)-pyrrolidinylmethoxy]cyclohexanecarboxylic acid], the Ki worked out at 4.2 nM and the IC50 stood at 9.5 nM.

Regarding `O=C(Nc1cc(F)c(CC(=O)N2C[C@@H](N3CCN(CC(F)(F)F)CC3)C[C@H]2CO[C@H]2CC[C@H](C(=O)O)CC2)cc1Cl)c1c[nH]c2ccccc12` [Example 131, Trans-4-[1-[[5-chloro-2-fluoro-4-[(1H-indol-3-ylcarbonyl)amino]phenyl]acetyl]-(4S)-[4-(2,2,2-trifluoroethyl)piperazin-1-yl]-(2S)-pyrrolidinylmethoxy]cyclohexanecarboxylic acid], the Ki worked out at 1.1 nM and the IC50 was 1.8 nM.

In the case of `O=C(Nc1ccc(CC(=O)N2C[C@@H](N3CCN(CC(F)(F)F)CC3)C[C@H]2CO[C@H]2CC[C@H](C(=O)O)CC2)cc1Cl)c1coc2ccccc12` [Example 132, Trans-4-[1-[[4-[(benzo[b]furan-3-ylcarbonyl)amino]-3-chlorophenyl]acetyl]-(4S)-[4-(2,2,2-trifluoroethyl)piperazin-1-yl]-(2S)-pyrrolidinylmethoxy]cyclohexanecarboxylic acid], the affinity corresponds to a Ki of 1.7 nM and the 50% inhibitory concentration (IC50) was 4 nM.

In the case of `CS(=O)(=O)N1CCN([C@H]2C[C@@H](CO[C@H]3CC[C@H](C(=O)O)CC3)N(C(=O)Cc3cc(Cl)c(NC(=O)c4coc5ccccc45)cc3F)C2)CC1` [Example 150, Trans-4-[1-[[4-[(benzo[b]furan-3-ylcarbonyl)amino]-5-chloro-2-fluorophenyl]acetyl]-(4S)-(4-methanesulfonylpiperazin-1-yl)-(2S)-pyrrolidinylmethoxy]cyclohexanecarboxylic acid], affinity was put at a Ki of 1.6 nM and the half-maximal inhibitory concentration (IC50) stood at 6.8 nM.

`Cn1nc(C(=O)Nc2ccc(CC(=O)N3C[C@@H](N4CCN(CC(F)(F)F)CC4)C[C@H]3CO[C@H]3CC[C@H](C(=O)O)CC3)cc2Cl)c2ccccc21` [Example 128, Trans-4-[1-[[3-chloro-4-[(1-methyl-1H-indazol-3-ylcarbonyl)amino]phenyl]acetyl]-(4S)-[4-(2,2,2-trifluoroethyl)piperazin-1-yl]-(2S)-pyrrolidinylmethoxy]cyclohexanecarboxylic acid]: the inhibitory constant (Ki) is 3.9 nM and the IC50 amounted to 13 nM.

As for `COC[C@H]1CC[C@H](COC)N1[C@H]1C[C@@H](CO[C@H]2CC[C@H](C(=O)O)CC2)N(C(=O)Cc2cc(Cl)c(NC(=O)c3csc4ccccc34)cc2F)C1` [Example 49], the Ki was 4 nM and the IC50 is 62 nM.

In the case of `Cn1cc(C(=O)Nc2cc(F)c(CC(=O)N3C[C@@H](N4CCS(=O)(=O)CC4)C[C@H]3CO[C@H]3CC[C@H](C(=O)O)CC3)cc2Cl)c2ccccc21` [Example 160, Trans-4-[1-[[5-chloro-2-fluoro-4-[(1-methyl-1H-indol-3-ylcarbonyl)amino]phenyl]acetyl]-(4S)-(1,1-dioxo-1λ^6-thiomorpholin-4-yl)-(2S)-pyrrolidinylmethoxy]cyclohexanecarboxylic acid], affinity was put at a Ki of 2.4 nM and the IC50 was determined as 9.9 nM.

For `C[C@@H]1CN([C@H]2C[C@@H](CO[C@H]3CC[C@H](C(=O)O)CC3)N(C(=O)Cc3cc(Cl)c(NC(=O)c4coc5ccccc45)cc3F)C2)C[C@H](C)O1` [Example 84, Trans-4-[1-[[4-[(benzo[b]furan-3-ylcarbonyl)amino]-5-chloro-2-fluorophenyl]acetyl]-(4S)-(cis-2,6-dimethylmorpholin-4-yl)-(2S)-pyrrolidinylmethoxy]cyclohexanecarboxylic acid], the Ki was determined as 2.4 nM and the IC50 was determined as 23 nM.

For `CN1CCN([C@H]2C[C@@H](CO[C@H]3CC[C@H](C(=O)O)CC3)N(C(=O)Cc3cc(Cl)c(NC(=O)c4coc5ccccc45)cc3Cl)C2)CC1=O` [Example 155, Trans-4-[1-[[4-[(benzo[b]furan-3-ylcarbonyl)amino]-2,5-dichlorophenyl]acetyl]-(4S)-(4-methyl-3-oxopiperazin-1-yl)-(2S)-pyrrolidinylmethoxy]cyclohexanecarboxylic acid], the inhibition constant Ki is 2.1 nM and the concentration for half-maximal inhibition (IC50) came out at 10 nM.

With `C[C@@H]1CC[C@@H](C)N1[C@H]1C[C@@H](CO[C@H]2CC[C@H](C(=O)O)CC2)N(C(=O)Cc2cc(Cl)c(NC(=O)c3coc4ccccc34)cc2F)C1` [Example 47, Trans-4-[1-[[4-[(benzo[b]furan-3-ylcarbonyl)amino]-5-chloro-2-fluorophenyl]acetyl]-(4S)-[(2R,5R)-dimethylpyrrolidin-1-yl]-(2S)-pyrrolidinylmethoxy]cyclohexanecarboxylic acid], the inhibition constant (Ki) worked out at 18 nM and the IC50 is 52 nM.

With `Cn1cc(C(=O)Nc2ccc(CC(=O)N3C[C@@H](N4CCN(CC(F)(F)F)CC4)C[C@H]3CO[C@H]3CC[C@H](C(=O)O)CC3)cc2Cl)c2ccccc21` [Example 130, Trans-4-[1-[[3-chloro-4-[(1-methyl-1H-indol-3-ylcarbonyl)amino]phenyl]acetyl]-(4S)-[4-(2,2,2-trifluoroethyl)piperazin-1-yl]-(2S)-pyrrolidinylmethoxy]cyclohexanecarboxylic acid], the Ki was 2.7 nM and the IC50 is 7.5 nM.

For the molecule `COC[C@H]1CCCN1[C@H]1C[C@@H](CO[C@H]2CC[C@H](C(=O)O)CC2)N(C(=O)Cc2cc(Cl)c(NC(=O)c3csc4ccccc34)cc2F)C1` [Example 44, Trans-4-[1-[[4-[(benzo[b]thiophen-3-ylcarbonyl)amino]-5-chloro-2-fluorophenyl]acetyl]-(4S)-[(2R)-methoxymethylpyrrolidin-1-yl]-(2S)-pyrrolidinylmethoxy]cyclohexanecarboxylic acid], affinity was put at a Ki of 6.8 nM and the IC50 came out at 24 nM.

With `Cn1cc(C(=O)Nc2cc(F)c(CC(=O)N3C[C@@H](N4CC[C@H](F)C4)C[C@H]3CO[C@H]3CC[C@H](C(=O)O)CC3)cc2Cl)c2ccccc21` [Example 37, Trans-4-[1-[[5-chloro-2-fluoro-4-[(1-methyl-1H-indol-3-ylcarbonyl)amino]phenyl]acetyl]-(4S)-[(3S)-fluoropyrrolidin-1-yl]-(2S)-pyrrolidinylmethoxy]cyclohexanecarboxylic acid], the inhibition constant Ki was 2.1 nM and the 50% inhibitory concentration (IC50) stood at 9.2 nM.

With `C[C@@H]1CN([C@H]2C[C@@H](CO[C@H]3CC[C@H](C(=O)O)CC3)N(C(=O)Cc3cc(Cl)c(NC(=O)c4cn(C)c5ccccc45)cc3F)C2)C[C@H](C)O1` [Example 81, Trans-4-[1-[[5-chloro-2-fluoro-4-[(1-methyl-1H-indol-3-ylcarbonyl)amino]phenyl]acetyl]-(4S)-(cis-2,6-dimethylmorpholin-4-yl)-(2S)-pyrrolidinylmethoxy]cyclohexanecarboxylic acid], the affinity, expressed as Ki, was 3 nM and the IC50 was found to be 12 nM.

Regarding `Cn1cc(C(=O)Nc2cc(F)c(CC(=O)N3C[C@@H](N4CCN(C5(C)CC5)CC4)C[C@H]3CO[C@H]3CC[C@H](C(=O)O)CC3)cc2Cl)c2ccccc21` [Example 141, Trans-4-[1-[[5-chloro-2-fluoro-4-[(1-methyl-1H-indol-3-ylcarbonyl)amino]phenyl]acetyl]-(4S)-[4-(1-methylcyclopropan-1-yl)piperazin-1-yl]-(2S)-pyrrolidinylmethoxy]cyclohexa necarboxylic acid], the Ki came to 6.3 nM and the IC50 was 23 nM.
